Each structure is given as a SMILES string.

For twelve compounds, melting point and EC50 results are on record in patent US8546424B2, “Acetylene derivatives of 5-phenyl-pyrazolopyridine, preparation thereof, and therapeutic use thereof” (Sanofi, priority 2009, dated 2013).

T1 sequence (Q06219 whole entry): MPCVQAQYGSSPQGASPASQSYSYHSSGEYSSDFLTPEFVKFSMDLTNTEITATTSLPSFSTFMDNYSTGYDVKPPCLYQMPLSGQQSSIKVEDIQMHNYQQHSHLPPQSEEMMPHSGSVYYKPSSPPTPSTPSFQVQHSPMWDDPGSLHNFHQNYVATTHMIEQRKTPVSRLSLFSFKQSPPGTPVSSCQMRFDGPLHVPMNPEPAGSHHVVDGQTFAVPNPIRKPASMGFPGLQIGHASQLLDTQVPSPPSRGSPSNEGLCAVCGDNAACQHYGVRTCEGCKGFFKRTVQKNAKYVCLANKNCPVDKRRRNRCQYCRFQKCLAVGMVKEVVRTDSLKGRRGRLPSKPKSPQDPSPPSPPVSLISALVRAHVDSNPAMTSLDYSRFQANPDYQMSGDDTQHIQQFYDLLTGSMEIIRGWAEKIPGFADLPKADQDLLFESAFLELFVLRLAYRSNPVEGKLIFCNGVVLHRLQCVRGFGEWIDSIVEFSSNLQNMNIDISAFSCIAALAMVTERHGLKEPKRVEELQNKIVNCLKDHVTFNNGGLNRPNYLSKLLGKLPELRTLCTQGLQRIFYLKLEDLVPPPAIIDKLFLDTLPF

Tested on in the first series: not given
Test: not given
Conditions: not given
Usually melting point stands for the temperature, or range, at which the solid turns liquid. For `C#CC(O)c1cccc(-c2ccn3nc(-c4ccc(Cl)cc4)cc3c2)c1` (racemic) [Compound 1, 1-{3-[2-(4-Chlorophenyl)pyrazolo[1,5-a]pyridin-5-yl]phenyl}prop-2-yn-1-ol], the melting point lay in the range of 195 to 197 °C.

`C#CC(O)c1cccc(-c2ccn3nc(-c4ccc(F)cc4)cc3c2)c1` (racemic) [Compound 2, 1-{3-[2-(4-Fluorophenyl)pyrazolo[1,5-a]pyridin-5-yl]phenyl}prop-2-yn-1-ol]: the melting point lay within 192 to 194 °C. The same measure, in the same setting: the value for `CC#CC(O)c1cccc(-c2ccn3nc(-c4ccc(F)cc4)cc3c2)c1` (racemic) [Compound 3, 1-{3-[2-(4-Fluorophenyl)pyrazolo[1,5-a]pyridin-5-yl]phenyl}but-2-yn-1-ol] was 164 to 166 °C; that for `C#CC(C)(O)c1cccc(-c2ccn3nc(-c4ccc(F)cc4)cc3c2)c1` (racemic) [Compound 4, 2-{3-[2-(4-Fluorophenyl)pyrazolo[1,5-a]pyridin-5-yl]phenyl}but-3-yn-2-ol] was 215 to 217 °C. Same read-out and setting: for `C#CC(O)c1ccccc1-c1ccn2nc(-c3ccc(F)cc3)cc2c1` (racemic) [Compound 5, 1-{2-[2-(4-Fluorophenyl)pyrazolo[1,5-a]pyridin-5-yl]phenyl}prop-2-yn-1-ol] the value was 104 to 106 °C. Still for that read-out and setting: for `C#CC(O)c1c(F)ccc(-c2ccn3nc(-c4ccc(F)cc4)cc3c2)c1F` (racemic) [Compound 6, 1-{2,6-Difluoro-3-[2-(4-fluorophenyl)pyrazolo[1,5-a]pyridin-5-yl]-phenyl}prop-2-yn-1-ol] the value was 151 to 153 °C; for `C#CC(O)c1cccc(-c2ccn3nc(-c4ccccc4F)cc3c2)c1` (racemic) [Compound 7, 1-{3-[2-(2-Fluorophenyl)pyrazolo[1,5-a]pyridin-5-yl]phenyl}prop-2-yn-1-ol], 157 to 159 °C.

In turn, `C#CC(O)c1cccc(-c2ccn3nc(-c4ccc(C)cc4)cc3c2)c1` (racemic) [Compound 8, 1-[3-(2-{p-Tolyl}pyrazolo[1,5-a]pyridin-5-yl)phenyl]prop-2-yn-1-ol] returned a melting point of 183 to 185 °C. On the same count and under the same terms, the value for `C#CC(O)c1cccc(-c2ccn3nc(-c4ccc(F)cc4)cc3c2)c1` (single isomer, unassigned; (+)) [Compound 10, (+)-1-{3-[2-(4-Fluorophenyl)pyrazolo[1,5-a]pyridin-5-yl]phenyl}prop-2-yn-1-ol] was 139 to 141 °C. Still for that read-out and setting: for `C#CC(C)(O)c1cccc(-c2ccn3nc(-c4ccc(F)cc4)cc3c2)c1` (single isomer, unassigned; (+)) [Compound 12, (+)-2-{3-[2-(4-Fluorophenyl)pyrazolo[1,5-a]pyridin-5-yl]phenyl}but-3-yn-2-ol] the value was 126 to 128 °C; for `C#CC(O)c1cccc(-c2ccn3nc(-c4ccc(F)cc4)cc3c2)c1` (single isomer, unassigned; (-)) [Compound 9, (−)-1-{3-[2-(4-Fluorophenyl)pyrazolo[1,5-a]pyridin-5-yl]phenyl}prop-2-yn-1-ol], 147 to 149 °C. Compound `C#CC(C)(O)c1cccc(-c2ccn3nc(-c4ccc(F)cc4)cc3c2)c1` (single isomer, unassigned; (-)) [Compound 11, (−)-2-{3-[2-(4-Fluorophenyl)pyrazolo[1,5-a]pyridin-5-yl]phenyl}but-3-yn-2-ol] gave a melting point of 122 to 124 °C.

Another series concerns the target T1, mouse Nurr1 receptor (Mus musculus, UniProt Q06219).
T1 construct: endogenously expressing the mouse Nurr1 receptor; host or cells: Neuro-2A (N2A) mouse neuroblastoma cells stably transfected with 8NBRE-luciferase
Briefly: in vitro activity on N2A cells (8NBRE-luciferase reporter). In kind it is cell-based. The settings on record: N2A-8NBRE cells, 24 hours incubation. The method, then:
The compounds according to the invention have formed the subject of pharmacological assays which make it possible to determine their modulatory effect on NOT. Evaluation of the in vitro Activity on N2A Cells
The activity of the compounds according to the invention was evaluated on a cell line (N2A) endogenously expressing the mouse Nurr1 receptor and stably transfected with the NOT binding response element (NBRE) coupled to the luciferase reporter gene. The assays were carried out according to the procedure described below.
The Neuro-2A cell line comes from a standard commercial source (ATCC). The Neuro-2A clone was obtained, from a spontaneous tumour originating from an A albino mouse strain, by R. J Klebe et al. This Neuro-2A line is subsequently stably transfected with 8NBRE-luciferase. The N2A-8NBRE cells are cultured until confluence in 75 cm^2 culture flasks containing DMEM supplemented with 10% of foetal calf serum, 4.5 g/l of glucose and 0.4 mg/ml of geneticin. After a week of culture, the cells are recovered with 0.25% trypsin for 30 seconds and then resuspended in DMEM without phenol red, containing 4.5 g/l of glucose and 10% of Hyclone delipidized serum, and deposited into transparent-bottom 96-well white plates. […] The plates are subsequently measured in a luminescence counter for microplates after having been sealed with an adhesive film. […]
(A reporter such as luciferase makes a cellular process visible.)
Broadly, the EC50 is the concentration at which the effect is half-maximal. Read a high EC50 as lower potency in that assay. As for `C#CC(O)c1cccc(-c2ccn3nc(-c4ccc(F)cc4)cc3c2)c1` (racemic) [Compound 2, 1-{3-[2-(4-Fluorophenyl)pyrazolo[1,5-a]pyridin-5-yl]phenyl}prop-2-yn-1-ol], the EC50 was 3 nM.
